Columns and labels:
Experiment in all cases: In vitro SafetyScreen panel
Type in all cases: binding
Calcium Channel N-Type = biological target: T1, Calcium Channel N-Type (Rattus norvegicus, UniProt Q02294)
T1 construct: Eurofins Discovery (contract panel) PP223
Experimental: (§1) In vitro off-target pharmacological activities of HSK21542 were evaluated on 86 targets using a SafetyScreen panel (Item PP223, target selectivity panel) and the corresponding methods could be found at https://www.eurofinsdiscoveryservices.com/.

[1] = biological target: T2, Serotonin (5-Hydroxytryptamine) 5-HT3 (Homo sapiens, UniProt P46098)
T2 construct: Eurofins Discovery (contract panel) PP223
Experimental: as §1

PPARγ = biological target: T3, PPARγ (Homo sapiens, UniProt P37231)
T3 construct: Eurofins Discovery (outsourced panel) PP223
Experimental: as §1

Vasopressin V1A = biological target: T4, Vasopressin V1A (Homo sapiens, UniProt P37288)
T4 construct: Eurofins Discovery (contract panel) PP223
Experimental: as §1

[2] = biological target: T5, Leukotriene, Cysteinyl CysLT1 (Homo sapiens, UniProt Q9Y271)
T5 construct: Eurofins Discovery (contract panel) Item PP223
Experimental: as §1

Histamine H1 = biological target: T6, Histamine H1 (Homo sapiens, UniProt P35367)
T6 construct: Eurofins Discovery (contract panel) Item PP223
Experimental: as §1

Opiate δ1 (OP1, DOP) = biological target: T7, Opiate δ1 (OP1, DOP) (Homo sapiens, UniProt P41143)
T7 construct: Eurofins Discovery (outsourced panel) PP223
Experimental: as §1

[3] = biological target: T8, Serotonin (5-Hydroxytryptamine) 5-HT1B (Homo sapiens, UniProt P28222)
T8 construct: Eurofins Discovery (outsourced panel) PP223
Experimental: as §1

Adrenergic α2A = biological target: T9, Adrenergic α2A (Homo sapiens, UniProt P08913)
T9 construct: Eurofins Discovery (contract panel) PP223
Experimental: as §1

[4] = biological target: T10, Serotonin (5-Hydroxytryptamine) 5-HT1A (Homo sapiens, UniProt P08908)
T10 construct: Eurofins Discovery (outsourced panel) PP223
Experimental: as §1

[5] = biological target: T11, Transporter, Serotonin (5-Hydroxytryptamine) (SERT) (Homo sapiens, UniProt P31645)
T11 construct: Eurofins Discovery (contract panel) PP223
Experimental: as §1

Cannabinoid CB2 = biological target: T12, Cannabinoid CB2 (Homo sapiens, UniProt P34972)
T12 construct: Eurofins Discovery (contract panel) PP223
Experimental: as §1

Tachykinin NK1 = biological target: T13, Tachykinin NK1 (Homo sapiens, UniProt P25103)
T13 construct: Eurofins Discovery (contract panel) PP223
Experimental: as §1

Melanocortin MC1 = biological target: T14, Melanocortin MC1 (Homo sapiens, UniProt Q01726)
T14 construct: Eurofins Discovery (contract panel) Item PP223
Experimental: as §1

Muscarinic M3 = biological target: T15, Muscarinic M3 (Homo sapiens, UniProt P20309)
T15 construct: Eurofins Discovery (outsourced panel) PP223
Experimental: as §1

Opiate μ (OP3, MOP) = biological target: T16, Opiate μ (OP3, MOP) (Homo sapiens, UniProt P35372)
T16 construct: Eurofins Discovery (outsourced panel) PP223
Experimental: as §1

Adrenergic α1D = biological target: T17, Adrenergic α1D (Homo sapiens, UniProt P25100)
T17 construct: Eurofins Discovery (contract panel) PP223
Experimental: as §1

Adenosine A2A = biological target: T18, Adenosine A2A (Homo sapiens, UniProt P29274)
T18 construct: Eurofins Discovery (contract panel) PP223
Experimental: as §1

[6] = biological target: T19, Transporter, Dopamine (DAT) (Homo sapiens, UniProt Q01959)
T19 construct: Eurofins Discovery (contract panel) PP223
Experimental: as §1

Angiotensin AT1 = biological target: T20, Angiotensin AT1 (Homo sapiens, UniProt P30556)
T20 construct: Eurofins Discovery (contract panel) PP223
Experimental: as §1

[7] = biological target: T21, Cholecystokinin CCK1 (CCKA) (Homo sapiens, UniProt P32238)
T21 construct: Eurofins Discovery (contract panel) PP223
Experimental: as §1

Dopamine D2S = biological target: T22, Dopamine D2S (Homo sapiens, UniProt P14416)
T22 construct: Eurofins Discovery (contract panel) Item PP223
Experimental: as §1

Muscarinic M1 = biological target: T23, Muscarinic M1 (Homo sapiens, UniProt P11229)
T23 construct: Eurofins Discovery (outsourced panel) PP223
Experimental: as §1

Histamine H2 = biological target: T24, Histamine H2 (Homo sapiens, UniProt P25021)
T24 construct: Eurofins Discovery (contract panel) Item PP223
Experimental: as §1

Adrenergic β2 = biological target: T25, Adrenergic β2 (Homo sapiens, UniProt P07550)
T25 construct: Eurofins Discovery (contract panel) PP223
Experimental: as §1

Glucocorticoid = biological target: T26, Glucocorticoid (Homo sapiens, UniProt P04150)
T26 construct: Eurofins Discovery (contract panel) Item PP223
Experimental: as §1

Progesterone PR-B = biological target: T27, Progesterone PR-B (Homo sapiens, UniProt P06401)
T27 construct: Eurofins Discovery (outsourced panel) PP223
Experimental: as §1

Adenosine A1 = biological target: T28, Adenosine A1 (Homo sapiens, UniProt P30542)
T28 construct: Eurofins Discovery (contract panel) PP223
Experimental: as §1

Cannabinoid CB1 = biological target: T29, Cannabinoid CB1 (Homo sapiens, UniProt P21554)
T29 construct: Eurofins Discovery (contract panel) PP223
Experimental: as §1

[8] = biological target: T30, Serotonin (5-Hydroxytryptamine) 5-HT2A (Homo sapiens, UniProt P28223)
T30 construct: Eurofins Discovery (outsourced panel) PP223
Experimental: as §1

Chemokine CCR1 = biological target: T31, Chemokine CCR1 (Homo sapiens, UniProt P32246)
T31 construct: Eurofins Discovery (contract panel) PP223
Experimental: as §1

Endothelin ETA = biological target: T32, Endothelin ETA (Homo sapiens, UniProt P25101)
T32 construct: Eurofins Discovery (contract panel) Item PP223
Experimental: as §1

Estrogen ERα = biological target: T33, Estrogen ERα (Homo sapiens, UniProt P03372)
T33 construct: Eurofins Discovery (contract panel) Item PP223
Experimental: as §1

Bradykinin B2 = biological target: T34, Bradykinin B2 (Homo sapiens, UniProt P30411)
T34 construct: Eurofins Discovery (contract panel) PP223
Experimental: as §1

GABAB1A = biological target: T35, GABAB1A (Homo sapiens, UniProt Q9UBS5)
T35 construct: Eurofins Discovery (contract panel) Item PP223
Experimental: as §1

[9] = biological target: T36, Serotonin (5-Hydroxytryptamine) 5-HT2B (Homo sapiens, UniProt P41595)
T36 construct: Eurofins Discovery (contract panel) PP223
Experimental: as §1

Neuropeptide YY1 = biological target: T37, Neuropeptide YY1 (Homo sapiens, UniProt P25929)
T37 construct: Eurofins Discovery (outsourced panel) PP223
Experimental: as §1

Adrenergic α1A = biological target: T38, Adrenergic α1A (Rattus norvegicus, UniProt P43140)
T38 construct: Eurofins Discovery (contract panel) PP223
Experimental: as §1

T17 sequence (P25100 whole entry): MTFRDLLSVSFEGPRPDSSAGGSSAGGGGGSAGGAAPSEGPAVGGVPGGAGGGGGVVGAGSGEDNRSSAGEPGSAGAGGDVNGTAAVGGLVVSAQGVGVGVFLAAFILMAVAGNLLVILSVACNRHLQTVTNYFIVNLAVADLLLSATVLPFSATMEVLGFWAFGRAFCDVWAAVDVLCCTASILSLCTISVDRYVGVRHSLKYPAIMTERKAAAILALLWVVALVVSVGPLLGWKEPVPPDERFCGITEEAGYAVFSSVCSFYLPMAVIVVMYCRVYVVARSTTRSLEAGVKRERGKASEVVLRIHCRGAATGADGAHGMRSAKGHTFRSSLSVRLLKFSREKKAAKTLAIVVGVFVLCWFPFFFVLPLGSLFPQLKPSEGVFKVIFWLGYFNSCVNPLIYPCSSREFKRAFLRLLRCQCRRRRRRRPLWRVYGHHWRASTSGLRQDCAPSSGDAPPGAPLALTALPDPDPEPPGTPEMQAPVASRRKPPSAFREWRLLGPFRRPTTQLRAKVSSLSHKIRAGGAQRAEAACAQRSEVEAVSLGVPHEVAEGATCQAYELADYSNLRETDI
T24 sequence (P25021 whole entry): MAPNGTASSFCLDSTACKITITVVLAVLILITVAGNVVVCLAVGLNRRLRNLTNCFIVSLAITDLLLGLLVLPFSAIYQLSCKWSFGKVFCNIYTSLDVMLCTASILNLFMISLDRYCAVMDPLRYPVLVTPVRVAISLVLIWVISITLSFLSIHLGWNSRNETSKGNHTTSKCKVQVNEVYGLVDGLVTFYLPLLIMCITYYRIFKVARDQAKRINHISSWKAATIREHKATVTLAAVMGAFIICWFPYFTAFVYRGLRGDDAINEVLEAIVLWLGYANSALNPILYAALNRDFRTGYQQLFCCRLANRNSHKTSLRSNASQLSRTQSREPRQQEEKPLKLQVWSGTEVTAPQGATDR
T30 sequence (P28223 whole entry): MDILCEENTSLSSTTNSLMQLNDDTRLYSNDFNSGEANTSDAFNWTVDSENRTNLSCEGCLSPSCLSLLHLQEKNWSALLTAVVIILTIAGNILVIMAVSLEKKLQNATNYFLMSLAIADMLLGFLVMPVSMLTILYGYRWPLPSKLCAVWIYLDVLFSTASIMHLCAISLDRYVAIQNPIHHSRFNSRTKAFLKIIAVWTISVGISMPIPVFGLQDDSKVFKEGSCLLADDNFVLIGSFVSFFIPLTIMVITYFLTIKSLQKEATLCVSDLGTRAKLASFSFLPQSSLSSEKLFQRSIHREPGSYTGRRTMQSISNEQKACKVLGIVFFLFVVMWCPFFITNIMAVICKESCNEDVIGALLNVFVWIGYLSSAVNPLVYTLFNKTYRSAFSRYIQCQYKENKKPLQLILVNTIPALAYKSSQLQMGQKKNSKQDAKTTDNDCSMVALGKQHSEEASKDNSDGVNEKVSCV
T4 sequence (P37288 whole entry): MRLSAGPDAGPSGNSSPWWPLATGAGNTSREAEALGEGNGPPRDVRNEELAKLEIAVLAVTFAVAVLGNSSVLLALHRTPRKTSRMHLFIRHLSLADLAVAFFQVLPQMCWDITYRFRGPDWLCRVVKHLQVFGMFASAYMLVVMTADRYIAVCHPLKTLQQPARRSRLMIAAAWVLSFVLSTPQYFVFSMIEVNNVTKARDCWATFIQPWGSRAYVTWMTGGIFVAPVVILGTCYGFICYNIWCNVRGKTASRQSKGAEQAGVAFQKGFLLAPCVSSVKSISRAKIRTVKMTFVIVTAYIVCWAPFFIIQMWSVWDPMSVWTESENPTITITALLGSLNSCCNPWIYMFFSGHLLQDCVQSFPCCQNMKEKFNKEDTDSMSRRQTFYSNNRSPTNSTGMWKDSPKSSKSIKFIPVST
T18 sequence (P29274 whole entry): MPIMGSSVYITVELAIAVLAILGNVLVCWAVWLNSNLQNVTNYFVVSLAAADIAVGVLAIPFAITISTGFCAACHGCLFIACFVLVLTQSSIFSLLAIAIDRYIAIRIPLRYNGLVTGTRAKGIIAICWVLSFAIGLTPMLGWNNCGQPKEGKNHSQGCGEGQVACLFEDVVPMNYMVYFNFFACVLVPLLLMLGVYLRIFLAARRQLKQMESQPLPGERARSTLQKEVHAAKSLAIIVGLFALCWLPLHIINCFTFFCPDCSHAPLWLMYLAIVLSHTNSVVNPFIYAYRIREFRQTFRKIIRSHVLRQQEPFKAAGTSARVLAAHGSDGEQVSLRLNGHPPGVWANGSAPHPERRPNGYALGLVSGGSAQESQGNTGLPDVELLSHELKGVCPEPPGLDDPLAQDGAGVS
T19 sequence (Q01959 whole entry): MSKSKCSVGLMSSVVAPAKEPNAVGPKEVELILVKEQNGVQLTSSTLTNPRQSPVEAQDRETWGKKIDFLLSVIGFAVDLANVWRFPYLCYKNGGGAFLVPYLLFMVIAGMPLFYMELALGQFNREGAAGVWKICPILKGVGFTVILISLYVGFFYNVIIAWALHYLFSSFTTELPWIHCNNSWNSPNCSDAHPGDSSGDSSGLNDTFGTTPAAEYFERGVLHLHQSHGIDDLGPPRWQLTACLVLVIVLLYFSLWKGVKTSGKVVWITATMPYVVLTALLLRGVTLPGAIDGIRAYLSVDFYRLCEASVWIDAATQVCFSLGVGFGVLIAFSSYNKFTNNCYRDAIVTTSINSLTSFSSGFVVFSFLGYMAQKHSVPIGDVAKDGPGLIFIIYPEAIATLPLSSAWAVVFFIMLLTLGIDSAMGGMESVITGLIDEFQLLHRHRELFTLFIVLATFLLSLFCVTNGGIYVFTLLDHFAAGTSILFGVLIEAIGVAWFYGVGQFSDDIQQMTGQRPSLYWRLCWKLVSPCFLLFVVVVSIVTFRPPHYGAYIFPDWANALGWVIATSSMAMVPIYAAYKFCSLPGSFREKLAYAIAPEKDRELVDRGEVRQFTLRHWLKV
T12 sequence (P34972 whole entry): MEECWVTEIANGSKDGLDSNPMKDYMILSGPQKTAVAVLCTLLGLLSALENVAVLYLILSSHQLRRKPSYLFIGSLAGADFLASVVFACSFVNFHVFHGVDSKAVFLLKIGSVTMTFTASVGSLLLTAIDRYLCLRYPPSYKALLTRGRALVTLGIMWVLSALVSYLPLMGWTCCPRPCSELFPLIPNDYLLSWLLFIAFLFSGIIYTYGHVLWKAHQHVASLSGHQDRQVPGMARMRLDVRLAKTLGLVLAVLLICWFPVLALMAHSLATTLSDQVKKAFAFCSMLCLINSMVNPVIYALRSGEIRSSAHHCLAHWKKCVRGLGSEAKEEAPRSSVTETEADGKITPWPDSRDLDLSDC
T6 sequence (P35367 whole entry): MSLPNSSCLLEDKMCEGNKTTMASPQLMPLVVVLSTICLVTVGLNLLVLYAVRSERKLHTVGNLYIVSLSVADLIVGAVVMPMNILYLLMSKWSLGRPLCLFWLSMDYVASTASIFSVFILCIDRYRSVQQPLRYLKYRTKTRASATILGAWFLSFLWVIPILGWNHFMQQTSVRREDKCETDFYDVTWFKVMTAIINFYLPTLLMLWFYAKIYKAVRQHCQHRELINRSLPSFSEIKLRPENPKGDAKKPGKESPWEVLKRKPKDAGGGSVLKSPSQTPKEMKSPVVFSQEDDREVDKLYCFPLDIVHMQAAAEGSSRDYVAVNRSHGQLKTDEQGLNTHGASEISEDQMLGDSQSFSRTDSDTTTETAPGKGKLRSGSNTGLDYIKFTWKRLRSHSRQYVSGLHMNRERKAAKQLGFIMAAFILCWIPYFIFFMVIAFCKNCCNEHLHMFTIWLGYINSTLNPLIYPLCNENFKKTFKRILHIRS
T36 sequence (P41595 whole entry): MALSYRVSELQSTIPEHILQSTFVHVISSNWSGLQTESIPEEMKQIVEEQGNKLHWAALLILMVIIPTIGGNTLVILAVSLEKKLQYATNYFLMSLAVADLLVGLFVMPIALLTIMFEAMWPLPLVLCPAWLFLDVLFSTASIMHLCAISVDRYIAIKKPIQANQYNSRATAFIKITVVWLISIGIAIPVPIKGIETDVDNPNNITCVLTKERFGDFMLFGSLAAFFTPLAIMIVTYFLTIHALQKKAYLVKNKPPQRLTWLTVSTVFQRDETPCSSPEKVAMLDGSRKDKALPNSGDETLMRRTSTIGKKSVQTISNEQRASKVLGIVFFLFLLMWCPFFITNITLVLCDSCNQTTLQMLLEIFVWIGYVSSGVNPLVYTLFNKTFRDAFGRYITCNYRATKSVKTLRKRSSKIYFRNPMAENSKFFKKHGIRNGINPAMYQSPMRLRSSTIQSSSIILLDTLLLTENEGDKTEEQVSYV
T34 sequence (P30411 whole entry): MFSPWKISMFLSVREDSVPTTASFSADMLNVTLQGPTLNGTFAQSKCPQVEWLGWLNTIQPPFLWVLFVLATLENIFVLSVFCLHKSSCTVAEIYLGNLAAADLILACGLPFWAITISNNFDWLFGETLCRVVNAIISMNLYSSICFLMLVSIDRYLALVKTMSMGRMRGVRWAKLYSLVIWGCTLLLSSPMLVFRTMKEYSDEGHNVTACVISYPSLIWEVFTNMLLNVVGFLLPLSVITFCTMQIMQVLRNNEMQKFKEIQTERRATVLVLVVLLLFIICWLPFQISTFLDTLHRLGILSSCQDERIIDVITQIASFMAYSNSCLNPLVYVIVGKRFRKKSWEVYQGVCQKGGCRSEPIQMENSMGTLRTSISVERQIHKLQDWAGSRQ
T5 sequence (Q9Y271 whole entry): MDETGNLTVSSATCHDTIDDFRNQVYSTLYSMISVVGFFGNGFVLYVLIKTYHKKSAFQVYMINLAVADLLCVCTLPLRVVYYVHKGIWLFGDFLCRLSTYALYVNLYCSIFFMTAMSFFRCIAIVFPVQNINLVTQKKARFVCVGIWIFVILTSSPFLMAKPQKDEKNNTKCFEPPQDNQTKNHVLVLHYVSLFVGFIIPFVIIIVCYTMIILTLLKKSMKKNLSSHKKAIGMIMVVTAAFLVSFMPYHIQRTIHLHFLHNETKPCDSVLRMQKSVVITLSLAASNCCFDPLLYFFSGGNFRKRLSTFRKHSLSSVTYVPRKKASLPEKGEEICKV

CC(=O)N1CC2(CCN(C(=O)[C@@H](CCCCN)NC(=O)[C@@H](CC(C)C)NC(=O)[C@@H](Cc3ccccc3)NC(=O)[C@H](N)Cc3ccccc3)CC2)C1 [HSK21542, 7-(D-phenylalanyl-D-phenylalanyl-D-leucyl-D-lysyl)-2-acetyl-2,7-diazaspiro (3.5)nonane]
inhibition at 10 µM (Calcium Channel N-Type): -3% | inhibition at 10 µM [1]: 14% | inhibition at 10 µM (PPARγ): 3% | inhibition at 10 µM (Vasopressin V1A): -24% | inhibition at 10 µM [2]: 8% | inhibition at 10 µM (Histamine H1): 4% | inhibition at 10 µM (Opiate δ1 (OP1, DOP)): 5% | inhibition at 10 µM [3]: 1% | inhibition at 10 µM (Adrenergic α2A): 7% | inhibition at 10 µM [4]: 1% | inhibition at 10 µM [5]: 7% | inhibition at 10 µM (Cannabinoid CB2): -30% | inhibition at 10 µM (Tachykinin NK1): 21% | inhibition at 10 µM (Melanocortin MC1): -3% | inhibition at 10 µM (Muscarinic M3): -3% | inhibition at 10 µM (Opiate μ (OP3, MOP)): 0% | inhibition at 10 µM (Adrenergic α1D): -1% | inhibition at 10 µM (Adenosine A2A): 3% | inhibition at 10 µM [6]: 2% | inhibition at 10 µM (Angiotensin AT1): -7% | inhibition at 10 µM [7]: 5% | inhibition at 10 µM (Dopamine D2S): -15% | inhibition at 10 µM (Muscarinic M1): 9% | inhibition at 10 µM (Histamine H2): 8% | inhibition at 10 µM (Adrenergic β2): 3% | inhibition at 10 µM (Glucocorticoid): 8% | inhibition at 10 µM (Progesterone PR-B): -1% | inhibition at 10 µM (Adenosine A1): 0% | inhibition at 10 µM (Cannabinoid CB1): 47% | inhibition at 10 µM [8]: 0% | inhibition at 10 µM (Chemokine CCR1): -4% | inhibition at 10 µM (Endothelin ETA): 4% | inhibition at 10 µM (Estrogen ERα): 0% | inhibition at 10 µM (Bradykinin B2): -3% | inhibition at 10 µM (GABAB1A): -8% | inhibition at 10 µM [9]: 0% | inhibition at 10 µM (Neuropeptide YY1): -8% | inhibition at 10 µM (Adrenergic α1A): 12%

Source: PMC8635029 (Frontiers in Pharmacology, 2021)
